This is an account of results in article PMC8175350, “Drug repurposing screens identify chemical entities for the development of COVID-19 interventions” (Nature Communications, 2021).

The test system of data set [1] is SARS-CoV-2. Type of data set: cell-based.
In data set [2] the test system is Calu-3 cells.
Data set [3] deals with Calu-3 cells. The data set is described as follows: Uninfected Calu-3 48 h Cell-Titer Glo cytotoxicity counter screen. As to conditions: for Calu-3 uninfected cytotoxicity Sinf Average: curve-fit effect at infinite concentration. On the technique in general: The purpose of a counterscreen is to sort out artefacts and off-target activity.
In data set [4] the test system is SARS-CoV-2. Nature of the data set: microbe, parasite or virus in culture. Type of data set: cell-based. As to conditions: for Emax: Severe acute respiratory syndrome coronavirus 2, Calu-3, 48 h; for EC50: read-out: Calu-3 CoV-2 EC50 GeoMean.
The subject of data set [5] is HeLa-ACE2 cells. The data set is described as follows: Uninfected HeLa-ACE2 24 h live/dead cytotoxicity counter screen. Type of data set: cell-based, human. As to conditions: for HeLa-ACE2 uninfected cytotoxicity Sinf Average: curve-fit effect at infinite concentration.
Assay in data set [6]: as above
Type of data set: cell-based, human. The following applies: human, uninfected HeLa-ACE2 cells.

In data set [7] the test system is SARS-CoV-2. The data set is described as follows: microbe, parasite or virus in culture. Type of data set: cell-based. The following applies: for Emax: Severe acute respiratory syndrome coronavirus 2, HeLa-ACE2, 24 h, curve-fit effect at infinite concentration, average, read-out: HeLa-ACE2 CoV-2 Sinf Average; for EC50: Severe acute respiratory syndrome coronavirus 2, HeLa-ACE2, read-out: HeLa-ACE2 CoV-2 EC50 GeoMean.

Another data set can be described thus: in vitro. The following applies: human; for CC50: unrounded geometric mean.
In data set [8] the test system is Calu-3 cells. The data set is described as follows: cells. The following applies: Homo sapiens; for Emax: Calu-3, 48 h.
The subject of data set [9] is HeLa-ACE2 cells. Nature of the data set: cells. The following applies: Homo sapiens; for Emax: HeLa-ACE2, 24 h, read-out: HeLa-ACE2 cell count Sinf Average.
Data set [10] can be described thus: Uninfected Calu-3 48 h Cell-Titer Glo cytotoxicity counter screen. The following applies: human, uninfected Calu-3 cells, Calu-3 uninfected cytotoxicity CC50 GeoMean, unrounded geometric mean.
Where [11] appears, read: curve-fit effect at infinite concentration, average, read-out: Calu-3 CoV-2 Sinf Average.
[12] abbreviates: Severe acute respiratory syndrome coronavirus 2, Calu-3, unrounded geometric mean.
Setting [13] is: uninfected cells, Fig. 2b group, read-out: HeLa-ACE2 CC50.
[14] abbreviates: unrounded geometric mean, read-out: HeLa-ACE2 uninfected cytotoxicity CC50 GeoMean.
The mark [15] stands for this setting: Calu-3 uninfected cytotoxicity CC50 GeoMean.
Where [16] appears, read: read-out: Calu-3 cell count Sinf Average.
Where [17] appears, read: Calu-3, read-out: Calu-3 cell count EC50 GeoMean, unrounded geometric mean.
The mark [18] stands for this setting: HeLa-ACE2, read-out: HeLa-ACE2 cell count EC50 GeoMean, unrounded geometric mean.

Several values for one entry are separate records, joined by “and”; a condition that tells them apart may be missing. Identical values can stand only once. Counter-ions that a name gives are not always drawn. Like-named read-outs stand apart in the source and are kept apart here.

Take `Nc1nc(N)c2nc(CCc3ccc(C(=O)N[C@@H](CCC(=O)O)C(=O)O)cc3)cnc2n1` [10-deazaaminopterin]: the interaction with remdesivir result with SARS-CoV-2 [1] (ZIP model) is given as “synergistic (synergistic effect: δ >10)”. Further, in the data set on SARS-CoV-2 [1] (alone, Concentration [uM] -9.01818), the “dose-response point, normalized infected cells” value was 8.312 and 15.4845 and 9.998. The maximal efficacy was 40% in the data set with SARS-CoV-2 [1] (compound alone), ~65% in the data set with SARS-CoV-2 [1] (with EC2 of remdesivir) and > 80% in the data set with SARS-CoV-2 [1] (with EC24 of remdesivir).
For N6-isopentenyladenosine [Riboprine], in the data set with SARS-CoV-2 [1], the interaction with remdesivir result is recorded as “synergistic (key: additive: Additive effect: -10< δ <10; synergistic effect: δ >10; antagonistic eff ect: δ <10)” and the maximal efficacy amounted to 100%.
For the molecule `Cn1c(C#N)ccc1-c1ccc2c(c1)C(C)(C)OC(=S)N2` [Tanaproget], in the data set with Calu-3 cells [2], the “uninfected Calu-3 CC50” value is > 19.278 ×÷ 2.07 (n=3) μM. In the data set on Calu-3 cells [3], the “Calu-3 uninfected cytotoxicity Sinf Average” value is recorded as -100%. In addition, the Emax in the data set with SARS-CoV-2 [4] (setting [11]) is 87%; in the data set on SARS-CoV-2 [7] it was 49%; in the data set on Calu-3 cells [8] (setting [16]), 98%; in the data set with HeLa-ACE2 cells [9], 100%. The 50% effective concentration (EC50) (commonly the concentration that produces a half-maximal response) in the data set on SARS-CoV-2 [4] (setting [12]) is 2440 nM; with SARS-CoV-2 [7] (unrounded geometric mean), 141 nM; in the data set on Calu-3 cells [8] (setting [17]) it was > 9.98 µM; in the data set on HeLa-ACE2 cells [9] (setting [18]), > 9.59 µM. The “HeLa-ACE2 uninfected cytotoxicity Sinf Average” value in the data set on HeLa-ACE2 cells [5] was -50%. In addition, the values for the CC50 at 24 h in data set [6] (setting [13]) and in data set [6] (setting [14]) were ≤ 3000 nM and 128 nM, respectively. In addition, the half-maximal cytotoxic concentration (CC50) (as a rule, the concentration that lowers cell viability or growth by half) at 48 h in “in vitro” (setting [15]) is > 19.3 µM.
Regarding `CC[C@@H]1/C=C/C=C/C[C@H](C)[C@@H](O)[C@](C)(O)C(=O)[C@H](C)[C@@H](O)[C@H](C)C(=O)[C@H](C)[C@@H](O)[C@H](C)/C=C/C(=O)O[C@H]2[C@@H](C)[C@@H](CC1)O[C@]1(O[C@H](C[C@H](C)O)[C@H](C)CC1=O)[C@@H]2C` [Oligomycin B], the “Calu-3 uninfected cytotoxicity Sinf Average” value with Calu-3 cells [3] is given as -89%. Moreover, the values for the Emax in the data set with SARS-CoV-2 [4] (setting [11]), with Calu-3 cells [8] (setting [16]) and with HeLa-ACE2 cells [9] were 93%, 50% and 100%, respectively. For the same molecule, the EC50 is < 5.39 nM in the data set on SARS-CoV-2 [4] (setting [12]), > 9590 nM in the data set on SARS-CoV-2 [7] (unrounded geometric mean), > 0.311 µM with Calu-3 cells [8] (setting [17]) and > 8.16 µM in the data set with HeLa-ACE2 cells [9] (setting [18]). Also, the “HeLa-ACE2 uninfected cytotoxicity Sinf Average” value in the data set on HeLa-ACE2 cells [5] is -100%. For the same molecule, the 50% cytotoxic concentration (CC50) at 24 h in data set [6] (setting [14]) worked out at 22000 nM. The CC50 in the data set “in vitro” (setting [15]) was > 24500 nM.
`CO[C@H]1C[C@H](O[C@H]2CC[C@]3(C=O)[C@H]4CC[C@]5(C)[C@@H](C6=CC(=O)OC6)CC[C@]5(O)[C@@H]4CC[C@]3(O)C2)O[C@H](C)[C@H]1O` [Cymarine]: the “Calu-3 uninfected cytotoxicity Sinf Average” value in the data set with Calu-3 cells [3] was -40%. For the same molecule, the Emax was 87% in the data set on SARS-CoV-2 [4] (setting [11]), 93% with SARS-CoV-2 [7], -100% with Calu-3 cells [8] (setting [16]) and 100% in the data set on HeLa-ACE2 cells [9]. Moreover, the EC50 is 135 nM in the data set with SARS-CoV-2 [4] (setting [12]), 237 nM in the data set with SARS-CoV-2 [7] (unrounded geometric mean), > 9.98 µM with Calu-3 cells [8] (setting [17]) and 0.311 µM in the data set with HeLa-ACE2 cells [9] (setting [18]). Moreover, the “HeLa-ACE2 uninfected cytotoxicity Sinf Average” value in the data set on HeLa-ACE2 cells [5] is -95%. Also, the CC50 at 24 h is ≤ 3000 nM in [6] (setting [13]) and 287 nM in data set [6] (setting [14]). Moreover, the 50% cytotoxic concentration (CC50) in “in vitro” (setting [15]) was > 5870 nM.
`COCc1c(C(C)C)nc(C(C)C)c(/C=C/[C@@H](O)C[C@@H](O)CC(=O)O)c1-c1ccc(F)cc1` [Cerivastatin sodium]: the “Calu-3 uninfected cytotoxicity Sinf Average” value with Calu-3 cells [3] was -100%. Moreover, the half-maximal cytotoxic concentration (CC50) at 48 h in data set [10] is > 29900 nM. For the same molecule, the values for the Emax in the data set on SARS-CoV-2 [4] (setting [11]), with Calu-3 cells [8] (setting [16]) and in the data set on HeLa-ACE2 cells [9] were 63%, 89% and 100%, respectively. For the same molecule, the concentration for a half-maximal effect (EC50) was 348 nM with SARS-CoV-2 [4] (setting [12]), > 9590 nM in the data set with SARS-CoV-2 [7] (unrounded geometric mean), 0.936 µM with Calu-3 cells [8] (setting [17]) and > 9.59 µM in the data set on HeLa-ACE2 cells [9] (setting [18]). For the same molecule, the “HeLa-ACE2 uninfected cytotoxicity Sinf Average” value in the data set with HeLa-ACE2 cells [5] is given as -74%. Also, the CC50 at 24 h was ≤ 3000 nM in data set [6] (setting [13]) and 308 nM in [6] (setting [14]).
On to `O=C(Nc1ccc(Cl)c(S(=O)(=O)N2CCNCC2)c1O)Nc1cccc(F)c1Cl` [Elubrixin tosylate], for which the “Calu-3 uninfected cytotoxicity Sinf Average (%)” value in the data set with Calu-3 cells [3] (Sinf average of the curves) is recorded as -100%. Moreover, the Emax in the data set on SARS-CoV-2 [4] (Sinf average of the curves, read-out: Calu-3 CoV-2 Sinf Average (%)) amounted to 100%; with Calu-3 cells [8] (read-out: Calu-3 cell count Sinf Average (%)) it was 67%. In addition, the EC50 in the data set on SARS-CoV-2 [4] (Severe acute respiratory syndrome coronavirus 2, Calu-3, geometric mean of replicates) was 6910 nM; with SARS-CoV-2 [7] (geometric mean of replicates), > 9590 nM; in the data set with Calu-3 cells [8] (Calu-3, read-out: Calu-3 cell count EC50 GeoMean (µM), geometric mean of replicates), > 9.98 µM; in the data set with HeLa-ACE2 cells [9] (HeLa-ACE2, read-out: HeLa-ACE2 cell count EC50 GeoMean (µM), geometric mean of replicates) it was > 9.59 µM. Besides, in the data set on HeLa-ACE2 cells [5] (Sinf average of the curves), the “HeLa-ACE2 uninfected cytotoxicity Sinf Average (%)” value is on record as -100%. The half-maximal cytotoxic concentration (CC50) at 24 h in data set [6] (geometric mean of replicates, read-out: HeLa-ACE2 uninfected cytotoxicity CC50 GeoMean) is > 39800 nM. In addition, the CC50 at 48 h in “in vitro” (Calu-3 uninfected cytotoxicity CC50 GeoMean (µM), geometric mean of replicates) was > 29.6 µM.
On to `CC[C@H]1CN2CCc3cc(OC)c(OC)cc3[C@@H]2C[C@@H]1C[C@H]1NCCc2cc(O)c(OC)cc21` [Cephaeline], for which, in the data set with Calu-3 cells [3], the “Calu-3 uninfected cytotoxicity Sinf Average” value was -68%. For the same molecule, the Emax came to 96% in the data set with SARS-CoV-2 [4] (setting [11]), 99% in the data set with SARS-CoV-2 [7], 100% with Calu-3 cells [8] (setting [16]) and 107% with HeLa-ACE2 cells [9]. Besides, the half-maximal effective concentration (EC50) with SARS-CoV-2 [4] (setting [12]) was 142 nM; in the data set with SARS-CoV-2 [7] (unrounded geometric mean) it was 16.8 nM; in the data set with Calu-3 cells [8] (setting [17]), > 6.92 µM; with HeLa-ACE2 cells [9] (setting [18]), 0.309 µM. For the same molecule, the “HeLa-ACE2 uninfected cytotoxicity Sinf Average” value with HeLa-ACE2 cells [5] is -100%. Also, the cytotoxic concentration (CC50) at 24 h was ≤ 3000 nM in data set [6] (setting [13]) and 212 nM in [6] (setting [14]). Further, the cytotoxic concentration (CC50) in “in vitro” (setting [15]) was > 4960 nM.
